Reference: ChEMBL document CHEMBL3112420, “Discovery of 8-cyclopentyl-2-[4-(4-methyl-piperazin-1-yl)-phenylamino]-7-oxo-7,8-dihydro-pyrido[2,3-d]pyrimidine-6-carbonitrile (7x) as a potent inhibitor of cyclin-dependent kinase 4 (CDK4) and AMPK-related kinase 5 (ARK5)” (J Med Chem, 2014)
pIC50: −log10 of the molar value.

Assays:
[1] = Cytotoxicity against human HCC1428 cells after 96 hrs by Cell-Titer Blue assay; format: functional; conditions: HCC1428, 96 h
HeLa = experiment: Cytotoxicity against human HeLa cells after 96 hrs by Cell-Titer Blue assay; format: functional
[2] = Cytotoxicity against human BT20 cells after 96 hrs by Cell-Titer Blue assay; format: functional; conditions: BT-20, 96 h
SK-OV-3 = experiment: Cytotoxicity against human SKOV3 cells after 96 hrs by Cell-Titer Blue assay; format: functional; conditions: SK-OV-3, 96 h
[3] = molecular target: Fibroblast growth factor receptor 1 (Homo sapiens, UniProt P11362); experiment: Inhibition of FGFR1 (unknown origin)
Sequence of Fibroblast growth factor receptor 1 (P11362 whole entry): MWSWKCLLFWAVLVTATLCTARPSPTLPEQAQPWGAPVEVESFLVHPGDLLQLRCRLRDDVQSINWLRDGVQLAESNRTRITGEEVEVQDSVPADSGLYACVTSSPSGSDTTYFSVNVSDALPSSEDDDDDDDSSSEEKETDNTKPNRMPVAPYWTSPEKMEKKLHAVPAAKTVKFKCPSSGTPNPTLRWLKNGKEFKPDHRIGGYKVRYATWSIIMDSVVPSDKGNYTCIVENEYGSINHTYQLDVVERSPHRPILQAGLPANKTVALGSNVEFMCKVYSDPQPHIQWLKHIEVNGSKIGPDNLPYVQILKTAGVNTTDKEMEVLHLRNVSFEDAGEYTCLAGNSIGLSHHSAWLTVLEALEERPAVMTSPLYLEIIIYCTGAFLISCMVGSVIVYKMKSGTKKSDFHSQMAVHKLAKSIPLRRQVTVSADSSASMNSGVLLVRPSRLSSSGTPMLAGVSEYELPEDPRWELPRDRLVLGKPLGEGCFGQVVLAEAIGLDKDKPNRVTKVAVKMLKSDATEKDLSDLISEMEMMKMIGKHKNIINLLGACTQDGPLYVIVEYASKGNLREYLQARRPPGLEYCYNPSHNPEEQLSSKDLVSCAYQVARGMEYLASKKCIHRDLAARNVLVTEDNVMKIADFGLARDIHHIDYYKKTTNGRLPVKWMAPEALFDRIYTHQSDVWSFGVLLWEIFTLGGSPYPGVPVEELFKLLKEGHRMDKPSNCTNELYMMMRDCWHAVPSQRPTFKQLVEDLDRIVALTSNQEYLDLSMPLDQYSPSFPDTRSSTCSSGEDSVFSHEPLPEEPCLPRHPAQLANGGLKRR

[4] = Cytotoxicity against human DLD1 cells after 96 hrs by Cell-Titer Blue assay; format: functional; conditions: DLD-1, 96 h
NCI-N87 = experiment: Cytotoxicity against human NCI-N87 cells after 96 hrs by Cell-Titer Blue assay; format: functional; conditions: NCI-N87, 96 h
[5] = molecular target: Tyrosine-protein kinase ABL1 (Homo sapiens, UniProt P00519); experiment: Inhibition of ABL (unknown origin)
Sequence of Tyrosine-protein kinase ABL1 (P00519 whole entry): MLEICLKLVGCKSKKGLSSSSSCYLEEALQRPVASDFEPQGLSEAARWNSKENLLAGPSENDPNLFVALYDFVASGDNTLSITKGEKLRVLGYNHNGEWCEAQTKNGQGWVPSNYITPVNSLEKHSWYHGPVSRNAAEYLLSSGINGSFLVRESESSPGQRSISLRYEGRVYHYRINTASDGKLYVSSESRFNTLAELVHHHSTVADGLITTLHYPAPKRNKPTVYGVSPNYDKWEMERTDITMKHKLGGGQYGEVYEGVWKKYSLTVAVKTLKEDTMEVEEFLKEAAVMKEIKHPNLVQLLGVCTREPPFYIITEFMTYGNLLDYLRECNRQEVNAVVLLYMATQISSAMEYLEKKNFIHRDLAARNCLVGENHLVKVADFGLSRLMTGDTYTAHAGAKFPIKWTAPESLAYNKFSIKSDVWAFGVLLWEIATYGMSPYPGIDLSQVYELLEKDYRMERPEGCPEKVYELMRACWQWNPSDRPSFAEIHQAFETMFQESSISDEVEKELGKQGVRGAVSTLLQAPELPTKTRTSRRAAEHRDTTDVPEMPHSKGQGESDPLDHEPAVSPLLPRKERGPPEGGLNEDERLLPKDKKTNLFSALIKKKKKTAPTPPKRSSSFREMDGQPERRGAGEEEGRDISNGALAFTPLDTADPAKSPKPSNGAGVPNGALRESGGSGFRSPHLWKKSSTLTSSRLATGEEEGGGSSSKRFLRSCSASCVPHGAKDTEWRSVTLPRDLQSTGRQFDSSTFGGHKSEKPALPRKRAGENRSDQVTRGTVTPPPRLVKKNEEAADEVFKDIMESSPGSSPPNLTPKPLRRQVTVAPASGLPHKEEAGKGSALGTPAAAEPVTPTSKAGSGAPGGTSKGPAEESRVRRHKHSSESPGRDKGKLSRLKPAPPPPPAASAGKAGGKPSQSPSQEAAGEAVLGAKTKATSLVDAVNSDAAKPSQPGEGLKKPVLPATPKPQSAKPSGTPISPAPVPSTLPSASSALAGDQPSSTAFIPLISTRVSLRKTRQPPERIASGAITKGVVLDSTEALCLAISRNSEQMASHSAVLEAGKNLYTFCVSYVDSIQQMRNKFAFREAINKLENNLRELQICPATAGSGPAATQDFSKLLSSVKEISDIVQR

MDA-MB-231 = experiment: Induction of apoptosis in human MDA-MB-231 cells assessed as PARP cleavage after 24 hrs by Western blotting analysis; format: functional, cell-based
[6] = Cytotoxicity against human Capan1 cells after 96 hrs by Cell-Titer Blue assay; format: functional; conditions: CAPAN-1, 96 h
MDA-MB-157 = experiment: Cytotoxicity against human MDA-MB-157 cells after 96 hrs by Cell-Titer Blue assay; format: functional; conditions: MDA-MB-157, 96 h
DU-145 = experiment: Cytotoxicity against human DU145 cells after 96 hrs by Cell-Titer Blue assay; format: functional, cell-based; conditions: DU-145, 96 h
NCI-H417 = experiment: Cytotoxicity against human NCI-N417 cells after 96 hrs by Cell-Titer Blue assay; format: functional; conditions: NCI-H417, 96 h
[7] = molecular target: Cyclin-dependent kinase 4/cyclin D1 (Homo sapiens, UniProt P11802); experiment: Inhibition of CDK4/cyclinD1 (unknown origin); format: protein-complex assay
Sequence of Cyclin-dependent kinase 4/cyclin D1 (P11802 whole entry): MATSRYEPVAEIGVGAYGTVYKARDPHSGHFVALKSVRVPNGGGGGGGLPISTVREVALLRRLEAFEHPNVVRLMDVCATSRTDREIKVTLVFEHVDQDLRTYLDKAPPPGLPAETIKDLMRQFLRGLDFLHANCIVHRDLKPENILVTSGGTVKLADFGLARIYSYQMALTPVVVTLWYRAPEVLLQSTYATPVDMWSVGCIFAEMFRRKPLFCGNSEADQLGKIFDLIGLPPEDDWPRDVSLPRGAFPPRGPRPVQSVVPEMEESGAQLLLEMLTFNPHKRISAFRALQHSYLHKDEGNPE
Sequence of Cyclin-dependent kinase 4/cyclin D1 (P24385 whole entry, further chain): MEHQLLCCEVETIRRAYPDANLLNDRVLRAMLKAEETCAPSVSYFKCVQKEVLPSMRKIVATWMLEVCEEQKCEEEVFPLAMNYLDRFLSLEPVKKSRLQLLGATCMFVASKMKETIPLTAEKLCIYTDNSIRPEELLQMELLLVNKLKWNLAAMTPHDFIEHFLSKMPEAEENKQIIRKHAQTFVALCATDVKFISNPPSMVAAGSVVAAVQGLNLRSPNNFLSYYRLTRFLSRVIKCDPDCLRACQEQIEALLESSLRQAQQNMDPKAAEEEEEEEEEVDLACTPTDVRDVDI

[8] = Cytotoxicity against human U266 cells after 96 hrs by Cell-Titer Blue assay; format: functional; conditions: U-266, 96 h
2008 = experiment: Cytotoxicity against human 2008 cells after 96 hrs by Cell-Titer Blue assay; format: functional; conditions: Homo sapiens, 2008, 96 h

SMILES: CN1CCN(c2ccc(Nc3ncc4cc(C#N)c(=O)n(C5CCCC5)c4n3)cc2)CC1 [NARAZACICLIB]
- GI50 [1]: 300 nM
- GI50 (HeLa): 750 nM
- GI50 [2]: 100 nM
- GI50 (SK-OV-3): 750 nM
- pIC50 [3]: 7.59
- GI50 [4]: 100 nM
- GI50 (NCI-N87): 900 nM
- pIC50 [5]: 7.27
- Activity (MDA-MB-231): Dose-dependent effect
- GI50 [6]: 500 nM
- GI50 (MDA-MB-157): 1000 nM
- GI50 (DU-145): 50 nM
- GI50 (NCI-H417): 250 nM
- pIC50 [7]: 8.42
- GI50 [8]: 200 nM
- GI50 2008: 1500 nM
